Measured values from patent publication EP4324461A1, “(E)-N-CINAMOYLAMINOALKANOLES WITH MELANOGENESIS INHIBITORY ACTIVITY” (UNIWERSYTET JAGIELLONSKI, priority 2022, dated 2024).

Tests used:
Primary melanocytes [1] = assay: Safety, MTT test in primary melanocytes; type: cell-based; conditions: 48 hours
Protocol: (§1) In order to test the safety of the compounds, both normal human cells were used: keratinocytes (HaCaT), fibroblasts (BJ), primary melanocytes that occur in the skin, as well as human cancer cells: the hepatocarcinoma line HepG2 and the neuroblastoma line SH-SY5Y, which are considered a model for the assessment of hepatocytotoxicity and neurocytotoxicity. The concentrations of the tested compounds in the range of 250-100 µM were used in the studies. The cell lines used in the research were purchased from the American Type Culture Collection (ATCC) and were cultured in media recommended by the manufacturer with the addition of FBS and antibiotics in an incubator ensuring appropriate culture conditions, i.e. humidity, temperature and CO2 concentration. Cells were seeded into multiwell plates and incubated with the test compounds for 48 hours. After this time, MTT and LDH tests were performed to assess cell viability. The MTT test is based on the ability to transform the substrate: [3-(4,5-dimethyl-2-thiazolyl)-2,5-diphenyl-2H-tetrazolium bromide into a colored product only by living cells. The absorbance at 570 nm, which corresponds to the absorption maximum for the product, is directly proportional to cell viability. The LDH test is based on testing the activity of the enzyme lactate dehydrogenase in the culture medium, which is released from cells as a result of damage to the cell membrane, e.g. as a result of cell death. Triton X-100 was used as a positive control in the test. The determination is colorimetric, the substrate is transformed by the released enzyme into a colored product, an increase in absorbance indicates a larger amount of the released enzyme, and thus confirms greater damage to cell membranes. Tables 7 and 8 present the results obtained, which correspond to the viability of cells incubated with the compounds in relation to the viability of cells constituting a control sample, i.e. incubated with the solvent (DMSO) at the same concentration as in the case of the groups tested in the MTT test or in relation to the results obtained for the Triton X-100 positive control in the LDH test. They indicate that the compounds are safe at the concentrations tested. Table 7. Viability of tested normal human cell lines: keratinocytes (HaCaT), fibroblasts (BJ) and primary melanocytes after incubation with the tested compounds - determination in the MTT test (% of solvent control ± SD) and LDH (percentage of positive control - Triton X-100.

Hepatocarcinoma HepG2 [2] = assay: Safety, LDH test in HepG2; type: cell-based; conditions: 48 hours, positive control Triton X-100
Protocol: as §1

Primary melanocytes [3] = assay: Safety, LDH test in primary melanocytes; type: cell-based; conditions: 48 hours, positive control Triton X-100
Protocol: as §1

neuroblastoma SH-SY5Y = assay: Safety, MTT test in SH-SY5Y; type: cell-based; conditions: 48 hours
Protocol: as §1

[4] = test system: Chinese hamster ovary cell line (CHO-K1); assay: Cytotoxicity in CHO-K1 cells (MTT) before the micronucleus test; type: cell-based; conditions: 24 hours
Protocol: The assay was performed using a Chinese hamster ovary cell line (CHO-K1) purchased from the American Type Culture Collection (ATCC). The cells were cultured in F-12K medium with the addition of 10% fetal bovine serum (FBS) and antibiotics (streptomycin/penicillin) in an incubator at 37 °C and 5% CO2 concentration). Before the actual micronucleus test, a cytotoxicity assessment was performed to ensure that the actual test was performed only at safe concentrations. For this purpose, cells were transferred to 96-well plates and incubated with the tested compounds for 24 hours. After this time, the MTT test was performed and cell viability was assessed in comparison to the control group (cells cultured with DMSO at the same concentration as in the case of the tested samples).

Keratinocytes (HaCaT) [5] = assay: Safety, LDH test in keratinocytes; type: cell-based; conditions: 48 hours, positive control Triton X-100
Protocol: as §1

Hepatocarcinoma HepG2 [6] = assay: Safety, MTT test in HepG2; type: cell-based; conditions: 48 hours
Protocol: as §1

S. typhimurium TA100 = assay: Ames microplate test, TA100; type: cell-based, Salmonella typhimurium; conditions: without S9;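 further: reference level is the mean solvent-control yellow wells plus SD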
Protocol: (§2) Bacteria were grown overnight in growth medium.
(§3) Table 9. Ames microplate test results.

Keratinocytes (HaCaT) [7] = assay: Safety, MTT test in keratinocytes; type: cell-based; conditions: 48 hours
Protocol: as §1

S. typhimurium TA98 = assay: Ames microplate test, TA98; type: cell-based, Salmonella typhimurium; conditions: without S9;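 further: reference level is the mean solvent-control yellow wells plus SD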
Protocol: as §2, §3

Cc1ccc(/C=C/C(=O)NCCCCCO)cc1 [H-415/21, (2E)-N-(5-hydroxypentyl)-3-(4-methylphenyl)prop-2-enamide]
Primary melanocytes MTT (Primary melanocytes [1]; 100 µM): 103.27±1.88 % of solvent control
Primary melanocytes MTT (Primary melanocytes [1]; 150 µM): 99.89±2.43 % of solvent control
Primary melanocytes MTT (Primary melanocytes [1]; 200 µM): 94.81±2.92 % of solvent control
Primary melanocytes MTT (Primary melanocytes [1]; 250 µM): 87.64±1.44 % of solvent control
Hepatocarcinoma HepG2 LDH (Hepatocarcinoma HepG2 [2]; 100 µM): 3.90 percentage of positive control
Hepatocarcinoma HepG2 LDH (Hepatocarcinoma HepG2 [2]; 150 µM): 7.24 percentage of positive control
Hepatocarcinoma HepG2 LDH (Hepatocarcinoma HepG2 [2]; 200 µM): 8.92 percentage of positive control
Hepatocarcinoma HepG2 LDH (Hepatocarcinoma HepG2 [2]; 250 µM): 15.47 percentage of positive control
Primary melanocytes LDH (Primary melanocytes [3]; 100 µM): 4.22 percentage of positive control
Primary melanocytes LDH (Primary melanocytes [3]; 150 µM): 6.01 percentage of positive control
Primary melanocytes LDH (Primary melanocytes [3]; 200 µM): 8.34 percentage of positive control
Primary melanocytes LDH (Primary melanocytes [3]; 250 µM): 14.94 percentage of positive control
Neuroblastoma SH-SYSY MTT (neuroblastoma SH-SY5Y; 100 µM): 100.68±4.63 % of solvent control
Neuroblastoma SH-SYSY MTT (neuroblastoma SH-SY5Y; 150 µM): 99.32±2.96 % of solvent control
Neuroblastoma SH-SYSY MTT (neuroblastoma SH-SY5Y; 200 µM): 100.27±3.50 % of solvent control
Neuroblastoma SH-SYSY MTT (neuroblastoma SH-SY5Y; 250 µM): 101.71±2.38 % of solvent control
% Viability [mean] ([4]; 100 µM): 102.2%
% Viability [mean] ([4]; 150 µM): 102.8%
% Viability [mean] ([4]; 200 µM): 87.2%
Keratinocytes (HaCaT) LDH (Keratinocytes (HaCaT) [5]; 100 µM): 2.95 percentage of positive control
Keratinocytes (HaCaT) LDH (Keratinocytes (HaCaT) [5]; 150 µM): 6.70 percentage of positive control
Keratinocytes (HaCaT) LDH (Keratinocytes (HaCaT) [5]; 200 µM): 10.18 percentage of positive control
Keratinocytes (HaCaT) LDH (Keratinocytes (HaCaT) [5]; 250 µM): 18.19 percentage of positive control
Hepatocarcinoma HepG2 MTT (Hepatocarcinoma HepG2 [6]; 100 µM): 100.32±1.75 % of solvent control
Hepatocarcinoma HepG2 MTT (Hepatocarcinoma HepG2 [6]; 150 µM): 99.54±5.74 % of solvent control
Hepatocarcinoma HepG2 MTT (Hepatocarcinoma HepG2 [6]; 200 µM): 100.53±3.98 % of solvent control
Hepatocarcinoma HepG2 MTT (Hepatocarcinoma HepG2 [6]; 250 µM): 98.90±4.21 % of solvent control
Increase in the number of yellow wells compared to the reference level (S. typhimurium TA100; 0.5 mM): 0.92
Increase in the number of yellow wells compared to the reference level (S. typhimurium TA100; 1.0 mM): 0.58
Increase in the number of yellow wells compared to the reference level (S. typhimurium TA100; 2.0 mM): 0.75
Keratinocytes (HaCaT) MTT (Keratinocytes (HaCaT) [7]; 100 µM): 101.11±2.03 % of solvent control
Keratinocytes (HaCaT) MTT (Keratinocytes (HaCaT) [7]; 150 µM): 101.78±2.32 % of solvent control
Keratinocytes (HaCaT) MTT (Keratinocytes (HaCaT) [7]; 200 µM): 100.88±1.40 % of solvent control
Keratinocytes (HaCaT) MTT (Keratinocytes (HaCaT) [7]; 250 µM): 88.54±3.74 % of solvent control
Increase in the number of yellow wells compared to the reference level (S. typhimurium TA98; 0.5 mM): 0.47
Increase in the number of yellow wells compared to the reference level (S. typhimurium TA98; 1.0 mM): 0.24
Increase in the number of yellow wells compared to the reference level (S. typhimurium TA98; 2.0 mM): 0.35
